# Source: patent US20260201008A1, “SECRETIN-DERIVED GLP1R SELECTIVE AGONISTS” (GUBRA A/S, priority 2023, published 2026)
# Numbered stars: 1 amine (or outer) side, 2 acyl side, 3 side chain; on linkers, the order of the positions; unused ones are H or OH. Square brackets hold non-standard residues; d marks the D form. Side chains are listed from the residue outwards. Peptide text beside a SMILES is read from it. * marks the point of attachment. C20 diacid = O=C(O)CCCCCCCCCCCCCCCCCCC(=O)*; γGlu = O=C(O)[C@H](CCC(=O)[*:2])N[*:1]; AEEA = NCCOCCOCC(=O)O; Aib = CC(C)(N)C(=O)O
# Assays:
# [1] = Turbidity of crude library peptides (absorbance at 600 nm); type: physicochemical; settings: Physical stability of peptides
# Summary of the method: (§1)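 Turbidity is the absorbance at 600 nm, taken before heating. Fibril signal is the mean ThT emission at 480 nm (450 nm excitation), read every 10 min over 72 h at 40° C with 700 rpm shaking between reads. Peptides at 267 μM, pH 4.0 acetate or pH 7.0 phosphate buffer (50 mM), 4 μM ThT final.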
# [2] = Fibril formation of crude library peptides (Thioflavin T); type: physicochemical; parameters: key: average ThT fluorescence emission at 480 nm (ex 450 nm), raw units; settings: Physical stability of peptides
# Summary of the method: as §1
# GLP1R = GLP1R (Homo sapiens, UniProt P43220); test: hGLP1R potency, cAMP accumulation in CHO-K1 cells stably overexpressing hGLP1R; type: cell-based; parameters: host or cells: CHO-K1; settings: for EC50: cAMP accumulation, CHO-K1 cells overexpressing hGLP1R, read-out: hGLP1R pEC50 (converted); for SCTR EC50/GLP1R EC50 ratio: selectivity for hGLP1R over hSCTR, cAMP accumulation in CHO-K1 cells
# Chain of GLP1R (P43220 24-463): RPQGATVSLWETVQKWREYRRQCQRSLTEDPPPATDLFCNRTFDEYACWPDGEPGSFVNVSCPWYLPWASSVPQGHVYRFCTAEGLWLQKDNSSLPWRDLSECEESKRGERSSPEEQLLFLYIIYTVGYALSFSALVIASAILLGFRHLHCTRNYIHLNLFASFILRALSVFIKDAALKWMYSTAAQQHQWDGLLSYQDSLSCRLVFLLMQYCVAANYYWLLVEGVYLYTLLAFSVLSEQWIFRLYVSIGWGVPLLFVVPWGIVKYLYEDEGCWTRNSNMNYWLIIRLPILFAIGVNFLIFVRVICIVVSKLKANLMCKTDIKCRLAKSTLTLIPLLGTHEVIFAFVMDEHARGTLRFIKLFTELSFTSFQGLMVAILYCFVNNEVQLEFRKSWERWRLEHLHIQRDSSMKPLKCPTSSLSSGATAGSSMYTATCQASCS
# Summary of the method: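 EC50 derives from variable-slope nonlinear regression of cAMP HTRF signal, with purified peptides tested as 11 three-fold dilutions in duplicate. Assay: hGLP1R-overexpressing CHO-K1 cells, 0.5 mM IBMX, 0.05% casein in DPBS, 30 min room-temperature stimulation, GLP-1(7-36) as reference agonist.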
# SCTR = SCTR (Homo sapiens, UniProt P47872); test: hSCTR potency, cAMP accumulation in CHO-K1 cells stably overexpressing hSCTR; type: cell-based; parameters: alternatively Euroscreen ES-712-AF; FAST-0161L; host or cells: CHO-K1; settings: cAMP accumulation, CHO-K1 cells overexpressing hSCTR; read-out: hSCTR pEC50 (converted)
# Chain of SCTR (P47872 23-440): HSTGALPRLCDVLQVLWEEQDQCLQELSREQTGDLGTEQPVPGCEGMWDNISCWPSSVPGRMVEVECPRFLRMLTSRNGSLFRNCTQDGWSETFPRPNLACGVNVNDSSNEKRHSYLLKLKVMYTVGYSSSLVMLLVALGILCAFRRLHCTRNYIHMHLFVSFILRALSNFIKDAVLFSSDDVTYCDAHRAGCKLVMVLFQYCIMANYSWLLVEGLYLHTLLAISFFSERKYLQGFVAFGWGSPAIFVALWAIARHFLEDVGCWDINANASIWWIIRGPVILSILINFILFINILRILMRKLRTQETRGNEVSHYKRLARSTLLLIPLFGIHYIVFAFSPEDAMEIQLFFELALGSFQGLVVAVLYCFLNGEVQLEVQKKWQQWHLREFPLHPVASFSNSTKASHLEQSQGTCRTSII
# Summary of the method: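 EC50 derived from variable-slope nonlinear regression on 11-point, 3-fold series run in duplicate (crude peptides: 5 points, 10-fold, n=1). Compound stimulation lasted 30 min at room temperature in casein/IBMX-containing DPBS (0.05%, 0.5 mM), 2000 cells/well; cAMP detected by time-resolved FRET after one hour.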
Turbidity (pH 7) [1],Fibril formation [2],EC50 (GLP1R) [nM],SCTR EC50/GLP1R EC50 ratio (GLP1R),EC50 (SCTR) [nM],Structure (SMILES)
0.53,260000,0.0158,30839,501,CC[C@H](C)[C@H](NC(=O)[C@H](Cc1ccccc1)NC(=O)[C@H](CCCNC(=N)N)NC(=O)[C@H](CCC(N)=O)NC(=O)[C@H](CC(C)C)NC(=O)[C@H](C)NC(=O)[C@H](C)NC(=O)CNC(=O)[C@H](CCC(=O)O)NC(=O)[C@H](CC(C)C)NC(=O)[C@H](CC(C)C)NC(=O)[C@H](Cc1ccccc1)NC(=O)[C@H](CO)NC(=O)[C@@H](NC(=O)[C@H](CC(=O)O)NC(=O)[C@H](CO)NC(=O)[C@@H](NC(=O)[C@H](Cc1ccccc1)NC(=O)[C@@H](NC(=O)CNC(=O)[C@H](CCC(=O)O)NC(=O)C(C)(C)NC(=O)[C@@H](N)Cc1c[nH]cn1)[C@@H](C)O)[C@@H](C)O)C(C)C)C(=O)N[C@@H](CCC(N)=O)C(=O)N[C@@H](Cc1c[nH]c2ccccc12)C(=O)N[C@@H](CC(C)C)C(=O)N[C@H](C(N)=O)C(C)C [compound 177] (H-H[Aib]EGTFTSDVSFLLEGAALQRFIQWLV-NH2)
0.12,53478,0.0158,11144,200,CC[C@H](C)[C@H](NC(=O)[C@H](Cc1ccccc1)NC(=O)[C@H](CCCNC(=N)N)NC(=O)[C@H](CCC(N)=O)NC(=O)[C@H](CC(C)C)NC(=O)[C@H](C)NC(=O)[C@H](C)NC(=O)CNC(=O)[C@H](CCC(=O)O)NC(=O)[C@H](CC(C)C)NC(=O)[C@H](CC(C)C)NC(=O)[C@H](CCC(=O)O)NC(=O)[C@H](CO)NC(=O)[C@@H](NC(=O)[C@H](CC(=O)O)NC(=O)[C@H](CO)NC(=O)[C@@H](NC(=O)[C@H](Cc1ccccc1)NC(=O)[C@@H](NC(=O)CNC(=O)[C@H](CCC(=O)O)NC(=O)C(C)(C)NC(=O)[C@@H](N)Cc1c[nH]cn1)[C@@H](C)O)[C@@H](C)O)C(C)C)C(=O)N[C@@H](CCC(N)=O)C(=O)N[C@@H](Cc1c[nH]c2ccccc12)C(=O)N[C@@H](CC(C)C)C(=O)N[C@H](C(N)=O)C(C)C [compound 180] (H-H[Aib]EGTFTSDVSELLEGAALQRFIQWLV-NH2)
0.69,257400,0.0501,4280,200,CC[C@H](C)[C@H](NC(=O)[C@H](Cc1ccccc1)NC(=O)[C@H](CCCNC(=N)N)NC(=O)[C@H](CCC(N)=O)NC(=O)[C@H](CC(C)C)NC(=O)[C@H](C)NC(=O)[C@H](C)NC(=O)CNC(=O)[C@H](CCC(=O)O)NC(=O)[C@H](CC(C)C)NC(=O)[C@H](CC(C)C)NC(=O)[C@H](Cc1ccc(O)cc1)NC(=O)[C@H](CO)NC(=O)[C@@H](NC(=O)[C@H](CC(=O)O)NC(=O)[C@H](CO)NC(=O)[C@@H](NC(=O)[C@H](Cc1ccccc1)NC(=O)[C@@H](NC(=O)CNC(=O)[C@H](CCC(=O)O)NC(=O)C(C)(C)NC(=O)[C@@H](N)Cc1c[nH]cn1)[C@@H](C)O)[C@@H](C)O)C(C)C)C(=O)N[C@@H](CCC(N)=O)C(=O)N[C@@H](Cc1c[nH]c2ccccc12)C(=O)N[C@@H](CC(C)C)C(=O)N[C@H](C(N)=O)C(C)C [compound 181] (H-H[Aib]EGTFTSDVSYLLEGAALQRFIQWLV-NH2)

# Further lines, the molecule ahead of its results:
Structure (SMILES),Turbidity (pH 7) [1],Fibril formation [2],EC50 (GLP1R) [nM],SCTR EC50/GLP1R EC50 ratio (GLP1R),EC50 (SCTR) [nM]
CC(C)C[C@H](NC(=O)[C@H](Cc1ccccc1)NC(=O)[C@H](CCCNC(=N)N)NC(=O)[C@H](CCC(N)=O)NC(=O)[C@H](CC(C)C)NC(=O)C(C)(C)NC(=O)[C@H](C)NC(=O)[C@H](CCC(=O)O)NC(=O)[C@H](CCC(=O)O)NC(=O)[C@H](CCCCNC(=O)COCCOCCNC(=O)COCCOCCNC(=O)CC[C@H](NC(=O)CCCCCCCCCCCCCCCCCCC(=O)O)C(=O)O)NC(=O)[C@H](CC(C)C)NC(=O)[C@H](Cc1c[nH]c2ccccc12)NC(=O)[C@H](CO)NC(=O)[C@@H](NC(=O)[C@H](CC(=O)O)NC(=O)[C@H](CO)NC(=O)[C@@H](NC(=O)[C@H](Cc1ccccc1)NC(=O)[C@@H](NC(=O)CNC(=O)[C@H](CCC(=O)O)NC(=O)C(C)(C)NC(=O)[C@@H](N)Cc1c[nH]cn1)[C@@H](C)O)[C@@H](C)O)C(C)C)C(=O)N[C@@H](CCC(=O)O)C(=O)N[C@@H](Cc1c[nH]cn1)C(=O)N[C@@H](CC(C)C)C(=O)N[C@H](C(N)=O)C(C)C [compound 174] (H-H[Aib]EGTFTSDVSWLK([AEEA-AEEA-γGlu-C20 diacid])EEA[Aib]LQRFLEHLV-NH2),0.08,3729,0.0126,7022,100
CC[C@H](C)[C@H](NC(=O)C(C)(C)NC(=O)[C@@H](N)Cc1c[nH]cn1)C(=O)NCC(=O)N[C@H](C(=O)N[C@@H](Cc1ccccc1)C(=O)N[C@H](C(=O)N[C@@H](CO)C(=O)N[C@@H](CC(=O)O)C(=O)N[C@H](C(=O)N[C@@H](CO)C(=O)N[C@@H](Cc1ccc(O)cc1)C(=O)N[C@@H](CC(C)C)C(=O)N[C@@H](CCCCNC(=O)COCCOCCNC(=O)COCCOCCNC(=O)CC[C@H](NC(=O)CCCCCCCCCCCCCCCCCCC(=O)O)C(=O)O)C(=O)N[C@@H](CCC(=O)O)C(=O)N[C@@H](CCC(=O)O)C(=O)N[C@@H](C)C(=O)NC(C)(C)C(=O)N[C@@H](CC(C)C)C(=O)N[C@@H](CCC(N)=O)C(=O)N[C@@H](CCCNC(=N)N)C(=O)N[C@@H](Cc1ccccc1)C(=O)N[C@@H](CC(C)C)C(=O)N[C@@H](CCC(=O)O)C(=O)N[C@@H](Cc1c[nH]cn1)C(=O)N[C@@H](CC(C)C)C(=O)N[C@H](C(N)=O)C(C)C)C(C)C)[C@@H](C)O)[C@@H](C)O [compound 175] (H-H[Aib]IGTFTSDVSYLK([AEEA-AEEA-γGlu-C20 diacid])EEA[Aib]LQRFLEHLV-NH2),0.08,3296,0.0316,247885,7940
CC(C)C[C@H](NC(=O)[C@H](Cc1ccccc1)NC(=O)[C@H](CCCNC(=N)N)NC(=O)[C@H](CCC(N)=O)NC(=O)[C@H](CC(C)C)NC(=O)C(C)(C)NC(=O)[C@H](C)NC(=O)[C@H](CCC(=O)O)NC(=O)[C@H](CCC(=O)O)NC(=O)[C@H](Cc1ccccc1)NC(=O)[C@H](CC(C)C)NC(=O)[C@H](Cc1ccc(O)cc1)NC(=O)[C@H](CO)NC(=O)[C@@H](NC(=O)[C@H](CC(=O)O)NC(=O)[C@H](CO)NC(=O)[C@@H](NC(=O)[C@H](Cc1ccccc1)NC(=O)[C@@H](NC(=O)CNC(=O)[C@H](CCC(=O)O)NC(=O)C(C)(C)NC(=O)[C@@H](N)Cc1c[nH]cn1)[C@@H](C)O)[C@@H](C)O)C(C)C)C(=O)N[C@@H](CCC(=O)O)C(=O)N[C@@H](CCCCNC(=O)COCCOCCNC(=O)COCCOCCNC(=O)CC[C@H](NC(=O)CCCCCCCCCCCCCCCCCCC(=O)O)C(=O)O)C(=O)N[C@@H](CC(C)C)C(=O)N[C@H](C(N)=O)C(C)C [compound 176] (H-H[Aib]EGTFTSDVSYLFEEA[Aib]LQRFLEK([AEEA-AEEA-γGlu-C20 diacid])LV-NH2),0.08,3751,0.0316,89023,3160
CC[C@H](C)[C@H](NC(=O)[C@H](Cc1ccccc1)NC(=O)[C@H](CCCNC(=N)N)NC(=O)[C@H](CCC(N)=O)NC(=O)[C@H](CC(C)C)NC(=O)[C@H](C)NC(=O)[C@H](C)NC(=O)CNC(=O)[C@H](CCC(=O)O)NC(=O)[C@H](CC(C)C)NC(=O)[C@H](CC(C)C)NC(=O)[C@H](CCCNC(=N)N)NC(=O)[C@H](CO)NC(=O)[C@@H](NC(=O)[C@H](CC(=O)O)NC(=O)[C@H](CO)NC(=O)[C@@H](NC(=O)[C@H](Cc1ccccc1)NC(=O)[C@@H](NC(=O)CNC(=O)[C@H](CCC(=O)O)NC(=O)C(C)(C)NC(=O)[C@@H](N)Cc1c[nH]cn1)[C@@H](C)O)[C@@H](C)O)C(C)C)C(=O)N[C@@H](CCC(N)=O)C(=O)N[C@@H](Cc1c[nH]c2ccccc12)C(=O)N[C@@H](CC(C)C)C(=O)N[C@H](C(N)=O)C(C)C [compound 178] (H-H[Aib]EGTFTSDVSRLLEGAALQRFIQWLV-NH2),0.77,29072,0.0631,891,63.1
CC[C@H](C)[C@H](NC(=O)[C@H](Cc1ccccc1)NC(=O)[C@H](CCCNC(=N)N)NC(=O)[C@H](CCC(N)=O)NC(=O)[C@H](CC(C)C)NC(=O)[C@H](C)NC(=O)[C@H](C)NC(=O)CNC(=O)[C@H](CCC(=O)O)NC(=O)[C@H](CC(C)C)NC(=O)[C@H](CC(C)C)NC(=O)C(C)(C)NC(=O)[C@H](CO)NC(=O)[C@@H](NC(=O)[C@H](CC(=O)O)NC(=O)[C@H](CO)NC(=O)[C@@H](NC(=O)[C@H](Cc1ccccc1)NC(=O)[C@@H](NC(=O)CNC(=O)[C@H](CCC(=O)O)NC(=O)C(C)(C)NC(=O)[C@@H](N)Cc1c[nH]cn1)[C@@H](C)O)[C@@H](C)O)C(C)C)C(=O)N[C@@H](CCC(N)=O)C(=O)N[C@@H](Cc1c[nH]c2ccccc12)C(=O)N[C@@H](CC(C)C)C(=O)N[C@H](C(N)=O)C(C)C [compound 179] (H-H[Aib]EGTFTSDVS[Aib]LLEGAALQRFIQWLV-NH2),0.55,22028,0.0794,5995,501
